Source: PMC10056348, “Photocaged Histone Deacetylase Inhibitors as Prodrugs in Targeted Cancer Therapy” (Pharmaceuticals, 2023)

Experiments:
[1] = test system: acetyl-α-tubulin in MV-3 cells; assay: Immunoblot of acetyl-α-tubulin (marker of HDAC6 inhibition); assay type: cell-based; conditions: 24 h, 3.1 µM
Protocol: MV-3 cells were seeded to cell culture flasks and cultured for 48 h. Aliquots of the DMSO stock solution (10 mM) designated for photolysis were irradiated for 10 min with the UV reactor (see Section 4.3). The cells were treated with the stock solutions, processed with or without irradiation, of the indicated concentration or vehicle (DMSO) for 24 h. Cell lysis was performed with Cell Extraction Buffer (10 mM Tris, pH 7.4, 100 mM NaCl, 1 mM EDTA, 1 mM EGTA, 1 mM NaF, 20 mM Na4P2O7, 2 mM Na3VO4, 1% Triton™ ×-100, 10% glycerol, 0.1% SDS, 0.5% deoxycholate; Catalog# FNN0011, Thermo Fisher Scientific Inc., Waltham, MA, USA) and addition of Halt Protease Inhibitor Cocktail (100×) (Catalog# 78429, Life Technologies GmbH Carlsbad, CA, USA) and phenylmethanesulfonyl fluoride (Catalog# 10837091001, Sigma-Aldrich, St. Louis, MO, USA) according to manufacturer instructions. Protein content was determined by Pierce™ BCA Protein Assay Kit (Catalog# 23225, Thermo Fisher Scientific Inc., Waltham, MA, USA) according to manufacturer guidelines. Samples were denatured by Laemmli 2× Concentrate (Catalog# S3401-10VL, Sigma-Aldrich, St. Louis, MO, USA), and Precision Plus Protein Unstained Standard was used as molecular weight marker (Catalog# 1610363, Bio-Rad, Hercules, CA, USA). SDS-PAGE was performed with 10% Mini-PROTEAN TGX Stain-Free Gel at 200 V for 50 min (Catalog# 458035, Bio-Rad, Hercules, CA, USA). Afterwards, proteins were transferred with the Trans-Blot Turbo Transfer System (Catalog# 1704150, Bio-Rad, Hercules, CA, USA) to Immobilon-FL PVDF membranes (Catalog# IPFL00005, Millipore Merck, Burlington, MA, USA) at 1.0 A for 30 min and incubated with 5% milk-powder solution for 1 h at room temperature under slight agitation. Subsequently, the membranes were incubated with anti-acetyl-histone H3 (Catalog# 9677S, Cell Signaling Technology, Denver, MA, USA), anti-acetyl-α-tubulin (Catalog#5335, Cell Signaling Technology, Denver, MA, USA), and anti-GAPDH (Catalog# T0004, Affinity Biosciences, Cincinnati, OH, USA) in 1:1000–1:10000 dilutions at 4 °C, overnight. […]

[2] = test system: asexual blood stage and liver stage parasites; parameters: method as in PMID 30664827; conditions: cited from earlier work
[3] = test system: MV-3 cell line; assay: MTT cell viability assay, MV-3; assay type: cell-based
Protocol: The amelanotic melanoma cell line MV-3 was obtained from EPO GmbH Berlin-Buch. The human ovarian carcinoma cell line A2780 was obtained from the European Collection of Cell Cultures (ECACC, Salisbury, UK). The cell lines were cultivated in RPMI 1640 medium supplemented with 10% fetal bovine serum and 50 U/mL penicillin and 50 µg/mL streptomycin and incubated at 37 °C under humidified air with 5% CO2 to 80–90% confluency before being used in further assays.
For this, 200-fold dilution series of the compounds of the respective stock solutions in DMSO (10 mM) were prepared in DMSO using clear U-bottom 96-well microplates (Greiner Bio-One, Greiner AG, Kremsmünster, Austria). Predilutions intended for photolysis experiments were irradiated for 10 min in the UV reactor described above. Thereafter, all predilutions were further diluted 1:200 in medium and provided in clear sterile F-bottom 96-well plates (Starlab GmbH, Hamburg, Germany). MV-3 cells were added at a density of 3000 cells/well and A2780 cells at a density of 8000 cells/well. The cells were added directly and without prior attachment. Final volume was 200 µL, and the final DMSO concentration was 0,5%. After 72 h, 40 µL MTT (3-(4,5-dimethylthiazol-2-yl)-2,5-diphenyltetrazolium bromide; BioChemica, Applichem GmbH, Darmstadt, Germany ) solution (5 mg/mL in phosphate-buffered saline) was added to determine cell survival. The formazan dye was dissolved in DMSO (Sigma-Aldrich, Steinheim, Germany) after 1 h, and absorbance was measured at 570 nm and 690 nm using a Multiskan microplate photometer (Thermo Fisher Scientific, Waltham, MA, USA). Concentration-effect curves were generated using the four-parameter logistic equation (GraphPad Prism 9.0, San Diego, CA, USA), and mean IC50 values were determined by nonlinear regression based on at least three distinct experiments in duplicates.

[4] = test system: acetyl-histone H3 in MV-3 cells; assay: Immunoblot of acetyl-histone H3 (marker of HDAC1-3 inhibition); assay type: cell-based; conditions: 24 h, 3.1 µM, after UV irradiation (365 nm, 10 min)
Protocol: MV-3 cells were seeded to cell culture flasks and cultured for 48 h. Aliquots of the DMSO stock solution (10 mM) designated for photolysis were irradiated for 10 min with the UV reactor (see Section 4.3). The cells were treated with the stock solutions, processed with or without irradiation, of the indicated concentration or vehicle (DMSO) for 24 h. Cell lysis was performed with Cell Extraction Buffer (10 mM Tris, pH 7.4, 100 mM NaCl, 1 mM EDTA, 1 mM EGTA, 1 mM NaF, 20 mM Na4P2O7, 2 mM Na3VO4, 1% Triton™ ×-100, 10% glycerol, 0.1% SDS, 0.5% deoxycholate; Catalog# FNN0011, Thermo Fisher Scientific Inc., Waltham, MA, USA) and addition of Halt Protease Inhibitor Cocktail (100×) (Catalog# 78429, Life Technologies GmbH Carlsbad, CA, USA) and phenylmethanesulfonyl fluoride (Catalog# 10837091001, Sigma-Aldrich, St. Louis, MO, USA) according to manufacturer instructions. Protein content was determined by Pierce™ BCA Protein Assay Kit (Catalog# 23225, Thermo Fisher Scientific Inc., Waltham, MA, USA) according to manufacturer guidelines. Samples were denatured by Laemmli 2× Concentrate (Catalog# S3401-10VL, Sigma-Aldrich, St. Louis, MO, USA), and Precision Plus Protein Unstained Standard was used as molecular weight marker (Catalog# 1610363, Bio-Rad, Hercules, CA, USA). […]

SMILES | level of acetylated α-tubulin ([1]; without UV irradiation) | antiplasmodial activity [2] | IC50 ([3]; MV-3, light or radiation study, MTT, 72 h, without UV irradiation) [µM] | level of acetylated α-tubulin ([1]; after UV irradiation (365 nm, 10 min)) | level of acetyl-histone H3 [4] | IC50 (MV-3) ([3]; MTT, 72 h, without UV irradiation) | IC50 ([3]; MV-3, light or radiation study, MTT, 72 h, after UV irradiation (365 nm, 10 min)) [µM] | inhibition at 25 µM ([3]; MV-3, light or radiation study, at 25 µM, without UV irradiation) [%]
CN(C)c1ccc(C(=O)N(CC(=O)NCc2ccccc2)Cc2ccc(C(=O)NO)cc2)cc1 [I, N-[2-(benzylamino)-2-oxoethyl]-4-(dimethylamino)-N-[4-(hydroxycarbamoyl)-benzyl]-benzamide] | strong hyperacetylation | potent antiplasmodial activity | 0.616 ± 0.161 |  |  |  |  | 
COc1cc(CONC(=O)c2ccc(CN(CC(=O)NCc3ccccc3)C(=O)c3ccc(N(C)C)cc3)cc2)c([N+](=O)[O-])cc1OC [pc-I, N-[2-(Benzylamino)-2-oxoethyl]-N-(4-{[(4,5-dimethoxy-2-nitrobenzyl)oxy]carbamoyl}benzyl)-4-(dimethylamino)benzamide] | no increased levels of acetylated α-tubulin |  |  | increased level of acetyl-α-tubulin | higher amount of acetyl-histone-H3 | n.e. ^b (n.e— no effect: <25% inhibition at 25 µM) | 0.727 ± 0.133 | < 25
